The term IC50 denotes the concentration needed to halve the response being measured. A low value points to greater potency. A word on the AUC: it is the area under the concentration-time curve, a measure of exposure. High values mean high exposure, low ones low exposure. The Vd is a proportionality between amount in the body and measured concentration, not a real space.

≈ marks a conversion by molar mass, not a printed value. Read-outs that look alike come from different tables or passages of the source.

Data set [1] is described as follows: In vitro DOX cumulative release kinetics by dialysis. It counts as physicochemical. The following applies: DPBS pH 7.4 with 0.5% Tween 80, 37 °C, 1 mg DOX/mL.
The subject of the next data set is 4T1.2 cells. As to the kind of experiment: In vitro cytotoxicity, MTT assay. The following applies: 72 h, DOX concentration. Format: cell-based, mouse. For orientation: Tetrazolium assays rely on reduction of a dye to a coloured formazan, in cell work by metabolically active cells.
In the next data set the test system is NCI/ADR-RES cells. As to the kind of experiment: Intracellular uptake of DOX. It counts as cell-based. The settings on record: 6 μg/mL DOX, 1 h (similar at 3 h).
For another data set, the system named is 4T1.2 tumor. As to the kind of experiment: In vivo antitumor efficacy, 4T1.2 syngeneic murine breast cancer model. More on the design: species or system female BALB/c mice. The following applies: 10 mg DOX/kg i.v., three consecutive injections.
A further data set deals with PC-3 xenograft tumor. As to the kind of experiment: In vivo antitumor efficacy, PC-3 human prostate cancer xenograft. The settings on record: 5 mg/kg i.v. on days 1, 4, 7; based on RTV on day 19. More on the design: species or system male nude mice.
The next data set concerns KB 8-5 xenograft tumor. As to the kind of experiment: In vivo antitumor efficacy, drug-resistant KB 8-5 xenograft. More on the design: species or system female nude mice. The following applies: for Tumor growth inhibition rate IR: based on RTV on day 22.
The conditions of data set [2]: single i.v.; for Animal death: dead/treated mice.
A short description of data set [3]: DOX pharmacokinetics after i.v. administration. The following applies: 5 mg DOX/kg.

In the case of `COc1cccc2c1C(=O)c1c(O)c3c(c(O)c1C2=O)C[C@@](O)(C(=O)CO)C[C@@H]3O[C@H]1C[C@H](N)[C@H](O)[C@H](C)O1` [DOX, Doxorubicin], the “amount of released DOX” value in data set [1] (after 74 h) is 96.35%. For the same compound, the DOX released in data set [1] (first 9 h) is reported as 92.14%. Besides, the half-inhibitory concentration (IC50) in the data set with 4T1.2 cells was found to be 0.1867 µg/mL (≈ 0.343 µM). In addition, the “DOX fluorescence signals in cells (confocal imaging)” value in the data set with NCI/ADR-RES cells is listed as “Least amounts of fluorescence signals”. In the data set on 4T1.2 tumor, the “mortality from systemic toxicity” value is reported as “all of the mice treated with free DOX died from systemic toxicity on day 7”. Also, the “Tumor growth inhibition rate IR” value in the data set on PC-3 xenograft tumor came to 38.72%; in the data set with KB 8-5 xenograft tumor (5 mg/kg i.v. on days 1, 4, 7), 6.13%; with KB 8-5 xenograft tumor (7.5 mg/kg i.v. on days 1, 4, 7), 20.91%. Also, the body weight change result in the data set on KB 8-5 xenograft tumor (5 and 7.5 mg/kg i.v. on days 1, 4, 7) is recorded as “significant weight loss”. Also, the Weight loss in data set [2] (5 mg/kg) is listed as 2.2%; in data set [2] (10 mg/kg), 7.8%. The Animal death in data set [2] (5 mg/kg) is listed as 0/3; in data set [2] (10 mg/kg), 0/3; in data set [2] (15 mg/kg), 2/3; in data set [2] (15 mg/kg, listed as free DOX), 2 out of 3. For the same compound, the exposure (AUC) in data set [3] is 5430 ± 110 ng·h/mL. Moreover, the CL in data set [3] is 18.40 ± 2.39 mL/h. Further, the Vd in data set [3] was determined as 25.32 ± 2.15 mL. This compound returned a t1/2 in data set [3] (non-compartment model) of 4.20 ± 0.35 h.

The values are drawn from article PMC4267990 (Journal of controlled release : official journal of the …, 2014).
